From patent publication US4332806A, “Antitumor and immunosuppresive 4-carbamoyl imidazolium-5-olate derivatives, pharmaceutical composition and production thereof” (Sumitomo Chemical Company, Limited, priority 1979, dated 1982)

Key:
[1] = system: Lewis lung carcinoma; test: Antitumor effect on experimental tumors in mice, Lewis lung carcinoma (solid), tumor inhibitory ratio; type: in vivo, BDF1 male mice; conditions: 100 mg/kg, i.p., schedule 5q2d (day 1, 3, 5, 7 and 9), tumors weighed at day 13
Experimental: The antitumor activities of the compounds of the present invention were estimated according to the methods described in "Cancer chemotherapy reports" Part 3, Vol. 3, (No. 2) p. 13 (1972).
For determining antitumor activities, BDF1 male mice, 5 weeks old, weighing between 18 and 22 grams were used. Each test group was composed of 6 to 7 mice. Two million cells of Lewis Lung Carcinoma were injected in the hind leg. The drug was administered intraperitoneally at day 1, 3, 5, 7 and 9 (or 5q2d).
After killing the mice at day 13, tumors were removed and weighed. The tumor inhibitory ratio was calculated according to the following formula. [formula]

[2] = Acute toxicities (LD50); conditions: mouse, in vivo, ip; ICR male mice, 5 weeks old, intraperitoneal
Experimental: For determining acute toxicities ICR male mice, 5 weeks old, were used. The drug was administered intraperitoneally.

[3] = system: tumors; conditions: Japanese Patent Publication (Kokai) No. 53-5162; cited from earlier work
[4] = Japanese Patent Publication (Kokai) No. 53-5162; cited from earlier work

SMILES	Inhibition Ratio, Lewis lung carcinoma (solid) [1] [%]	LD50 [2] [mg/kg]	antitumor activity, known (in words) [3]	immunosuppressive activity, known (in words) [4]
NC(=O)c1[nH]cnc1OC(=O)C12CC3CC(C1)CC(c1ccccc1)(C3)C2 [5-carbamoyl-1H-imidazole-4-yl 3'-phenyladamantane-1'-carboxylate]	85.7			
NC(=O)c1[nH]cnc1OC(=O)C12CC3CC(CC(F)(C3)C1)C2 [5-carbamoyl-1H-imidazole-4-yl 3'-fluoroadamantane-1'-carboxylate]	65	670 to 1000		
NC(=O)c1[nH]cnc1OC(=O)C12CC3CC(CC(C3)C1)C2 [Compound (IV), 5-Carbamoyl-1H-imidazole-4-yl adamantane-1'-carboxylate]		250 to 297	antitumor and immunosuppressive activity	immunosuppressive activity
NC(=O)c1[nH]cnc1OC(=O)C12CC3CC(CC(Br)(C3)C1)C2 [5-carbamoyl-1H-imidazole-4-yl 3'-bromoadamantane-1'-carboxylate]	66.2	670 to 1000		
CC12CC3(C)CC(C)(C1)CC(C(=O)Oc1nc[nH]c1C(N)=O)(C2)C3 [5-carbamoyl-1H-imidazole-4-yl 3',5',7'-trimethyladamantane-1'-carboxylate]	90	670 to 1000		
NC(=O)c1[nH]cnc1OC(=O)C12CC3CC(CC(Cl)(C3)C1)C2 [5-carbamoyl-1H-imidazole-4-yl 3'-chloroadamantane-1'-carboxylate]	71.1	> 1000		
